Data from patent US20200016062A1, “TERMINALIA FERDINANDIANA LEAF EXTRACT AND PRODUCTS CONTAINING EXTRACT OF TERMINALIA FERDINANDIANA LEAF” (RISING PHOENIX INDUSTRIES PTY LTD, priority 2016, published 2020).

Test system: C. jeikeium
Test: modified disc diffusion assay, C. jeikeium
Format: cell-based, Corynebacterium jeikeium
Details: 10 μL extract per disc; vancomycin 5 μg disc; aerobic, 37° C., 24 hours
Method: Evaluation of antibacterial activity screening of the T. ferdinandiana fruit and leaf extracts was assessed using a modified disc diffusion assay.
100 μL of each individual bacteria (C. jeikeium, B. linens, P. acnes and S. epidermidis) was grown separately in 20 mL of the appropriate broth until an approximate count of 10^8 cells/mL was reached.
A volume of 100 μL of each bacterial suspension was spread onto agar plates and the extracts tested for antibacterial activity using 5 mm sterilised filter paper discs.
C. jeikeium cultures were spread onto nutrient agar plates supplemented with 300 μL Tween 80/L of agar.
Discs were infused with 10 μL of the individual extracts, allowed to dry and placed onto inoculated plates. The plates were left to stand at 4° C. for 2 hours before incubation.
Plates inoculated with B. linens, S. epidermidis or C. jeikeium cultures were incubated aerobically at 37° C. for 24 hours.
The diameters of the inhibition zones were measured to the closest whole millimetre. Each assay was completed in at least triplicate. […]
The ability of T. ferdinandiana leaf and fruit extracts to inhibit the growth of bacterial species under test associated with the production of body and foot odours were assessed. […]

## CN[C@H](CC(C)C)C(=O)N[C@H]1C(=O)N[C@@H](CC(N)=O)C(=O)N[C@H]2C(=O)N[C@H]3C(=O)N[C@H](C(=O)N[C@H](C(=O)O)c4cc(O)cc(O)c4-c4cc3ccc4O)[C@H](O)c3ccc(c(Cl)c3)Oc3cc2cc(c3O[C@@H]2O[C@H](CO)[C@@H](O)[C@H](O)[C@H]2O[C@H]2C[C@](C)(N)[C@H](O)[C@H](C)O2)Oc2ccc(cc2Cl)[C@H]1O [vancomycin]
  growth inhibitory activity against C. jeikeium (zones of inhibition): good inhibitor
